Experimental findings from US20070027150A1 (priority 2005, published 2007) are described below.

As usually defined, the IC50 is the midpoint of a concentration-inhibition curve.

One test deals with His-tagged N-terminal ATP binding domain (amino acid residues 9-236) of HSP90α (Homo sapiens, UniProt P07900). The test can be described thus: HSP90 inhibitor binding potency: TRF competition binding assay. The following applies: Table I; read-out: Hsp90 IC50 Range. In outline: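 His-tagged HSP90α N-domain (residues 9-236) incubated 2 h at room temperature with biotinylated radicicol and increasing compound in 50 mM HEPES, 6 mM MgCl2, 20 mM KCl, 0.1% BSA. Bound tracer captured on streptavidin plates, detected with europium anti-His antibody by time-resolved fluorescence; IC50 derived.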
Take `Cc1nc(N)nc2c1C(=O)CC(c1c(O)cccc1-c1cccnc1F)C2` (stereo not shown) [Compound 170, 2-amino-7-[2-(2-fluoro-pyridin-3-yl)-6-hydroxy-phenyl]-4-methyl-7,8-dihydro-6H-quinazolin-5-one]: the IC50 is below 1 µM.

Turning to `COc1ccncc1-c1ccccc1C1CC(=O)c2c(C)nc(N)nc2C1` (stereo not shown) [Compound 72, 2-amino-7-[2-(4-methoxypyridin-3-yl)phenyl]-4-methyl-7,8-dihydroquinazolin-5(6H)-one], the IC50 fell in the range of 1 to 10 µM.

Turning to `Cc1nc(N)nc2c1C(=O)CC(c1ccccc1Oc1ccccc1F)C2` (stereo not shown) [Compound 138, 2-amino-7-[2-(2-fluorophenoxy)phenyl]-4-methyl-7,8-dihydroquinazolin-5(6H)-one], the IC50 was below 1 µM.

For the compound `COc1ccccc1-c1cc(F)ccc1C1CC(=O)c2c(C)nc(N)nc2C1` (stereo not shown) [Compound 95, 2-amino-7-(5-fluoro-2′-methoxy-biphenyl-2-yl)-4-methyl-7,8-dihydro-6H-quinazolin-5-one], the IC50 is below 1 µM.

Regarding `Cc1nc(N)nc2c1C(=O)CC(c1ccccc1-c1cccc3[nH]ccc13)C2` (stereo not shown) [Compound 128, 2-amino-7-[2-(1H-indol-4-yl)phenyl]-4-methyl-7,8-dihydroquinazolin-5(6H)-one], the IC50 is below 1 µM.

On to `CC(=O)Nc1ccccc1-c1ccccc1C1CC(=O)c2c(C)nc(N)nc2C1` (stereo not shown) [Compound 103, N-[2′-(2-amino-4-methyl-5-oxo-5,6,7,8-tetrahydroquinazolin-7-yl)-1,1′-biphenyl-2-yl]acetamide], for which the IC50 was in the range of 1 to 10 µM.

As for `Cc1nc(N)nc2c1C(=O)CC(c1ccc(Cl)cc1Cl)C2` (stereo not shown) [Compound 6, 2-amino-7-(2,4-dichlorophenyl)-4-methyl-7,8-dihydroquinazolin-5(6H)-one], the IC50 lay in the range of 1 to 10 µM.

On to `Cc1nc(N)nc2c1C(=O)CC(c1c(OCCN3CCN(C)CC3)cccc1-c1cccnc1F)C2` (stereo not shown) [Compound 158, 2-amino-7-{2-(2-fluoro-pyridin-3-yl)-6-[2-(4-methyl-piperazin-1-yl)-ethoxy]-phenyl}-4-methyl-7,8-dihydro-6H-quinazolin-5-one], for which the IC50 is below 1 µM.

As to `Cc1nc(N)nc2c1C(=O)CC(c1c(OCCN)cccc1-c1cccnc1F)C2` (stereo not shown) [Compound 153, 2-amino-7-[2-(2-amino-ethoxy)-6-(2-fluoro-pyridin-3-yl)-phenyl]-4-methyl-7,8-dihydro-6H-quinazolin-5-one], the IC50 is below 1 µM.

Take `Cc1nc(N)nc2c1C(=O)CC(c1ccc(F)cc1Oc1ccccc1)C2` (stereo not shown) [Compound 140, 2-amino-7-(4-fluoro-2-phenoxy-phenyl)-4-methyl-7,8-dihydro-6H-quinazolin-5-one]: the IC50 is below 1 µM.

In the case of `Cc1nc(N)nc2c1C(=O)CC(c1ccc(F)cc1-c1cccc(F)n1)C2` (stereo not shown) [Compound 89, 2-amino-7-[4-fluoro-2-(6-fluoro-pyridin-2-yl)-phenyl]-4-methyl-7,8-dihydro-6H-quinazolin-5-one], the IC50 is below 1 µM.

`Cc1nc(N)nc2c1C(=O)CC(c1ccccc1-c1ccccc1C(N)=O)C2` (stereo not shown) [Compound 90, 2′-(2-amino-4-methyl-5-oxo-5,6,7,8-tetrahydroquinazolin-7-yl)-1,1′-biphenyl-2-carboxamide]: the IC50 was below 1 µM.

Regarding `Cc1nc(N)nc2c1C(=O)CC(c1ccccc1-c1ncccn1)C2` (stereo not shown) [Compound 32, 2-amino-4-methyl-7-(2-pyrimidin-2-ylphenyl)-7,8-dihydroquinazolin-5(6H)-one], the IC50 is below 1 µM.

The same test, now with this note: Table II; read-out: Hsp90 IC50 Range.
`COc1cncc(-c2cc(F)ccc2[C@H]2CC(=O)c3c(C)nc(N)nc3C2)n1` [Compound 225, (R)-2-amino-7-[4-fluoro-2-(6-methoxy-pyrazin-2-yl)-phenyl]-4-methyl-7,8-dihydro-6H-quinazolin-5-one]: the IC50 lay in the range of 1 to 10 µM.

In the case of `Cc1nc(N)nc2c1C(=O)CC(c1nccn1Cc1ccccn1)C2` (stereo not shown) [Compound 209, 2-amino-4-methyl-7-(1-pyridin-2-ylmethyl-1H-imidazol-2-yl)-7,8-dihydro-6H-quinazolin-5-one], the IC50 is above 10 µM.

As to `Cc1nc(N)nc2c1C(=O)CC(c1ccc(F)cc1OCC1CC1)C2` (stereo not shown) [Compound 179, 2-amino-7-(2-cyclopropylmethoxy-4-fluoro-phenyl)-4-methyl-7,8-dihydro-6H-quinazolin-5-one], the IC50 was below 1 µM.

As for `Cc1nc(N)nc2c1C(=O)CC(c1nccn1-c1ccc(Cl)cc1F)C2` (stereo not shown) [Compound 328, 2-amino-7-[1-(4-chloro-2-fluoro-phenyl)-1H-imidazol-2-yl]-4-methyl-7,8-dihydro-6H-quinazolin-5-one], the IC50 lay within 1 to 10 µM.

Regarding `Cc1nc(N)nc2c1C(=O)CC(c1ccccc1S(=O)(=O)N(C)C(C)C)C2` (stereo not shown) [Compound 185, 2-(2-amino-4-methyl-5-oxo-5,6,7,8-tetrahydro-quinazolin-7-yl)-N-isopropyl-N-methyl-benzenesulfonamide], the IC50 fell in the range of 1 to 10 µM.

Take `Cc1nc(N)nc2c1C(=O)CC(c1ncc[nH]1)C2` (stereo not shown) [Compound 234, 2-amino-7-(1H-imidazol-2-yl)-4-methyl-7,8-dihydro-6H-quinazolin-5-one]: the IC50 is above 10 µM.

In the case of `COc1ccc(Cc2nc(N)nc3c2C(=O)CC(c2ccccc2)C3)cc1` (stereo not shown) [Compound 304, 2-amino-4-(4-methoxy-benzyl)-7-phenyl-7,8-dihydro-6H-quinazolin-5-one], the 50% inhibitory concentration (IC50) was in the range of 1 to 10 µM.

Regarding `Cc1nc(N)nc2c1C(=O)CC(c1cccc(F)c1-c1cccnc1F)C2` (stereo not shown) [Compound 222, 2-amino-7-[3-fluoro-2-(2-fluoro-pyridin-3-yl)-phenyl]-4-methyl-7,8-dihydro-6H-quinazolin-5-one], the IC50 was below 1 µM.

With `COc1nc(-c2cc(F)ccc2[C@H]2CC(=O)c3c(C)nc(N)nc3C2)ncc1Cl` [Compound 299, (R)-2-amino-7-[2-(5-chloro-4-methoxy-pyrimidin-2-yl)-4-fluoro-phenyl]-4-methyl-7,8-dihydro-6H-quinazolin-5-one], the IC50 was below 1 µM.

Regarding `COc1cccc(-n2ccnc2[C@@H]2CC(=O)c3c(C)nc(N)nc3C2)n1` [Compound 204, (S)-2-amino-7-[1-(6-methoxy-pyridin-2-yl)-1H-imidazol-2-yl]-4-methyl-7,8-dihydro-6H-quinazolin-5-one], the IC50 is below 1 µM.

Consider `CCOc1cccc(-n2ccnc2C2CC(=O)c3c(C)nc(N)nc3C2)c1` (stereo not shown) [Compound 191, 2-amino-7-[1-(3-ethoxy-phenyl)-1H-imidazol-2-yl]-4-methyl-7,8-dihydro-6H-quinazolin-5-one], for which the IC50 was above 10 µM.

`Cc1nc(N)nc2c1C(=O)CC(c1c(F)cccc1-c1cncnc1)C2` (stereo not shown) [Compound 218, 2-amino-7-(2-fluoro-6-pyrimidin-5-yl-phenyl)-4-methyl-7,8-dihydro-6H-quinazolin-5-one]: the IC50 was below 1 µM.

On to `Cc1nc(N)nc2c1C(=O)CC(c1ncccc1OC1CCCC1)C2` (stereo not shown) [Compound 178, 2-amino-7-(3-cyclopentyloxy-pyridin-2-yl)-4-methyl-7,8-dihydro-6H-quinazolin-5-one], for which the IC50 was below 1 µM.

As for `COc1nccc(-c2cc(F)ccc2C2CC(=O)c3c(C)nc(N)nc3C2)n1` (stereo not shown) [Compound 258, 2-amino-7-[4-fluoro-2-(2-methoxy-pyrimidin-4-yl)-phenyl]-4-methyl-7,8-dihydro-6H-quinazolin-5-one], the IC50 was above 10 µM.

Regarding `CCc1nc(N)nc2c1C(=O)CC(c1ccc(F)cc1-c1cnc(OC)c(OC)n1)C2` (stereo not shown) [Compound 324, 2-amino-7-[2-(5,6-dimethoxy-pyrazin-2-yl)-4-fluoro-phenyl]-4-ethyl-7,8-dihydro-6H-quinazolin-5-one], the IC50 is below 1 µM.

Take `Cc1nc(N)nc2c1C(=O)CC(c1cccc(F)c1Br)C2` (stereo not shown) [Compound 237, 2-amino-7-(2-bromo-3-fluoro-phenyl)-4-methyl-7,8-dihydro-6H-quinazolin-5-one]: the IC50 lay in the range of 1 to 10 µM.

`Cc1nc(N)nc2c1C(=O)CC(c1ncsc1-c1ccccc1F)C2` (stereo not shown) [Compound 302, 2-amino-7-[5-(2-fluoro-phenyl)-thiazol-4-yl]-4-methyl-7,8-dihydro-6H-quinazolin-5-one]: the IC50 was below 1 µM.

On to `Nc1ncc2c(n1)CC(c1ccc(F)cc1-c1cccnc1F)CC2=O` (stereo not shown) [Compound 277, 2-amino-7-[4-fluoro-2-(2-fluoro-pyridin-3-yl)-phenyl]-7,8-dihydro-6H-quinazolin-5-one], for which the IC50 is below 1 µM.

Consider `COc1ccc(F)c(-c2cc(F)ccc2[C@H]2CC(=O)c3c(C)nc(N)nc3C2)n1` [Compound 314, (R)-2-amino-7-[4-fluoro-2-(3-fluoro-6-methoxy-pyridin-2-yl)-phenyl]-4-methyl-7,8-dihydro-6H-quinazolin-5-one], for which the IC50 lay in the range of 1 to 10 µM.

Turning to `COc1cccc(-c2scnc2[C@@H]2CC(=O)c3c(C)nc(N)nc3C2)n1` [Compound 298, (S)-2-amino-7-[5-(6-methoxy-pyridin-2-yl)-thiazol-4-yl]-4-methyl-7,8-dihydro-6H-quinazolin-5-one], the IC50 is below 1 µM.

With `Cc1nc(N)nc2c1C(=O)CC(c1c(F)cccc1-c1cccnc1F)C2` (stereo not shown) [Compound 217, 2-amino-7-[2-fluoro-6-(2-fluoro-pyridin-3-yl)-phenyl]-4-methyl-7,8-dihydro-6H-quinazolin-5-one], the IC50 is below 1 µM.

Consider `CCc1nc(N)nc2c1C(=O)CC(c1ccc(F)cc1-c1cccnc1F)C2` (stereo not shown) [Compound 319, 2-amino-4-ethyl-7-[4-fluoro-2-(2-fluoro-pyridin-3-yl)-phenyl]-7,8-dihydro-6H-quinazolin-5-one], for which the IC50 lay in the range of 1 to 10 µM.

In the case of `COc1ccc(Br)c(C2CC(=O)c3c(C)nc(N)nc3C2)c1` (stereo not shown) [Compound 239, 2-amino-7-(2-bromo-5-methoxy-phenyl)-4-methyl-7,8-dihydro-6H-quinazolin-5-one], the IC50 lay in the range of 1 to 10 µM.

Turning to `Cc1nc(N)nc2c1C(=O)CC(c1nccn1C1CCCC1)C2` (stereo not shown) [Compound 189, 2-amino-7-(1-cyclopentyl-1H-imidazol-2-yl)-4-methyl-7,8-dihydro-6H-quinazolin-5-one], the IC50 is below 1 µM.
